# Measured values: US7445765B2, “Radiopharmaceutical for diagnostic imaging containing a technetium-99m nitride heterocomplex” (Nihon Medi-Physics Co., Ltd., priority 2000, dated 2008)
# What was measured:
# [1] = Biodistribution of the 99mTc(N) heterocomplexes in rats (organ uptake, heart accumulation, heart/lung and heart/liver ratios); format: in vivo, female Sprague-Dawley rats
# How it was run: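 Female Sprague-Dawley rats (200–250 g, n=3), ketamine/xylazine anaesthesia, got 300–370 kBq of each purified heterocomplex in pH 7.4 phosphate buffer (10% ethanol) via the jugular vein. They were killed at several post-injection times. Heart blood and washed, weighed organs were gamma-counted, taking whole blood as 6.5% of body weight.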
# [2] = Measurement of Log k′ by HPLC, PNP5 or PNP6 heterocomplexes; format: physicochemical; conditions: HPLC C18, methanol/phosphate buffer (pH 7.4, 0.02M), 1.0 mL/min; extrapolated to 0% organic solvent
# Procedure: Log k′o values, measured at various compositions of the mobile phase, were determind for the ^99mTc(N) heterocomplexes obtained using PNP5 or PNP6 as a bisphosphinoamine compound. The analysis of the relationship between Log k′o values and the mobile-phase composition yielded extrapolated Log k′ values as a measure of the partitioning between the hydrophobic stationary phase and water. The Log k′ values were extrapolated from the linear part of the curve.
# TLC chromatography was carried out on silica-gel plates and using the mixture ethanol/chloroform/toluene/[NH4][CH3COO] (0.5 M) (5:3:3:0.5) as mobile phase. […] HPLC analysis was performed on a Beckman System Gold instrument equipped with a Programmable Solvent Module 126, a scanning detector Module 166 and a radioisotope detector Module 170. A C18 reversed-phase precolumn (Ultrasphere Beckman, 4.6×45 mm), a C18 reversed-phase column (Ultrasphere Beckman, 4.6×250 mm) and a 100-μL loop were used. The mobile phase was methanol in various mixtures (% v/v) with a phosphate buffer (pH=7.4, 0.02M) at a flow rate of 1.0 mL min^−1. Before injection, all solutions were purified using a CM Sep-Pak cartridge. […]
compound,measurement,setting,value
CCOCCN1CC[P](CCCOC)(CCCOC)[99Tc+]2(#[N])([S]C(N(CCOCC)CCOCC)=[S]2)[P](CCCOC)(CCCOC)CC1 [[^99mTc(N) (PNP5) (DBODC)]^+],Biodistribution in rats: Adrenal glands,[1]; 0 min post injection,2.87 % dose/g
same,Biodistribution in rats: Blood,[1]; 0 min post injection,6.65 % dose/g
same,Biodistribution in rats: Brain,[1]; 0 min post injection,0.45 % dose/g
same,Biodistribution in rats: Heart,[1]; 0 min post injection,5.01 % dose/g
same,Biodistribution in rats: Intestine,[1]; 0 min post injection,1.71 % dose/g
same,Biodistribution in rats: Kidneys,[1]; 0 min post injection,3.71 % dose/g
same,Biodistribution in rats: Liver,[1]; 0 min post injection,0.82 % dose/g
same,Biodistribution in rats: Lungs,[1]; 0 min post injection,6.58 % dose/g
same,Biodistribution in rats: Muscle,[1]; 0 min post injection,0.09 % dose/g
same,Biodistribution in rats: Spleen,[1]; 0 min post injection,1.75 % dose/g
same,Biodistribution in rats: Submax. glands,[1]; 0 min post injection,0.16 % dose/g
same,Biodistribution in rats: Adrenal glands,[1]; 2 min post injection,3.95 % dose/g
same,Biodistribution in rats: Blood,[1]; 2 min post injection,0.11 % dose/g
same,Biodistribution in rats: Brain,[1]; 2 min post injection,0.03 % dose/g
same,Biodistribution in rats: Heart,[1]; 2 min post injection,3.94 % dose/g
same,Biodistribution in rats: Intestine,[1]; 2 min post injection,7.97 % dose/g
same,Biodistribution in rats: Kidneys,[1]; 2 min post injection,14.69 % dose/g
same,Biodistribution in rats: Liver,[1]; 2 min post injection,2.66 % dose/g
same,Biodistribution in rats: Lungs,[1]; 2 min post injection,0.99 % dose/g
same,Biodistribution in rats: Muscle,[1]; 2 min post injection,0.20 % dose/g
same,Biodistribution in rats: Spleen,[1]; 2 min post injection,2.68 % dose/g
same,Biodistribution in rats: Submax. glands,[1]; 2 min post injection,1.77 % dose/g
same,Biodistribution in rats: Adrenal glands,[1]; 10 min post injection,3.73 % dose/g
same,Biodistribution in rats: Blood,[1]; 10 min post injection,0.03 % dose/g
same,Biodistribution in rats: Brain,[1]; 10 min post injection,0.01 % dose/g
same,Biodistribution in rats: Heart,[1]; 10 min post injection,3.69 % dose/g
same,Biodistribution in rats: Intestine,[1]; 10 min post injection,9.04 % dose/g
same,Biodistribution in rats: Kidneys,[1]; 10 min post injection,9.16 % dose/g
same,Biodistribution in rats: Liver,[1]; 10 min post injection,1.61 % dose/g
same,Biodistribution in rats: Lungs,[1]; 10 min post injection,0.88 % dose/g
same,Biodistribution in rats: Muscle,[1]; 10 min post injection,0.21 % dose/g
same,Biodistribution in rats: Spleen,[1]; 10 min post injection,1.79 % dose/g
same,Biodistribution in rats: Submax. glands,[1]; 10 min post injection,1.79 % dose/g
same,Biodistribution in rats: Adrenal glands,[1]; 20 min post injection,3.00 % dose/g
same,Biodistribution in rats: Blood,[1]; 20 min post injection,0.02 % dose/g
same,Biodistribution in rats: Brain,[1]; 20 min post injection,0.01 % dose/g
same,Biodistribution in rats: Heart,[1]; 20 min post injection,3.63 % dose/g
same,Biodistribution in rats: Intestine,[1]; 20 min post injection,9.63 % dose/g
same,Biodistribution in rats: Kidneys,[1]; 20 min post injection,6.58 % dose/g
same,Biodistribution in rats: Liver,[1]; 20 min post injection,0.96 % dose/g
same,Biodistribution in rats: Lungs,[1]; 20 min post injection,0.57 % dose/g
same,Biodistribution in rats: Muscle,[1]; 20 min post injection,0.17 % dose/g
same,Biodistribution in rats: Spleen,[1]; 20 min post injection,1.41 % dose/g
same,Biodistribution in rats: Submax. glands,[1]; 20 min post injection,1.57 % dose/g
same,Biodistribution in rats: Adrenal glands,[1]; 30 min post injection,3.36 % dose/g
same,Biodistribution in rats: Blood,[1]; 30 min post injection,0.02 % dose/g
same,Biodistribution in rats: Brain,[1]; 30 min post injection,0.01 % dose/g
same,Biodistribution in rats: Heart,[1]; 30 min post injection,3.73 % dose/g
same,Biodistribution in rats: Intestine,[1]; 30 min post injection,6.70 % dose/g
same,Biodistribution in rats: Kidneys,[1]; 30 min post injection,6.70 % dose/g
same,Biodistribution in rats: Liver,[1]; 30 min post injection,0.72 % dose/g
same,Biodistribution in rats: Lungs,[1]; 30 min post injection,0.64 % dose/g
same,Biodistribution in rats: Muscle,[1]; 30 min post injection,0.19 % dose/g
same,Biodistribution in rats: Spleen,[1]; 30 min post injection,0.92 % dose/g
same,Biodistribution in rats: Submax. glands,[1]; 30 min post injection,1.88 % dose/g
same,Biodistribution in rats: Adrenal glands,[1]; 60 min post injection,4.17 % dose/g
same,Biodistribution in rats: Blood,[1]; 60 min post injection,0.01 % dose/g
same,Biodistribution in rats: Brain,[1]; 60 min post injection,0.01 % dose/g
same,Biodistribution in rats: Heart,[1]; 60 min post injection,3.76 % dose/g
same,Biodistribution in rats: Intestine,[1]; 60 min post injection,6.52 % dose/g
same,Biodistribution in rats: Kidneys,[1]; 60 min post injection,5.73 % dose/g
same,Biodistribution in rats: Liver,[1]; 60 min post injection,0.20 % dose/g
same,Biodistribution in rats: Lungs,[1]; 60 min post injection,0.46 % dose/g
same,Biodistribution in rats: Muscle,[1]; 60 min post injection,0.21 % dose/g
same,Biodistribution in rats: Spleen,[1]; 60 min post injection,0.41 % dose/g
same,Biodistribution in rats: Submax. glands,[1]; 60 min post injection,1.84 % dose/g
same,Biodistribution in rats: Adrenal glands,[1]; 120 min post injection,3.44 % dose/g
same,Biodistribution in rats: Blood,[1]; 120 min post injection,0.01 % dose/g
same,Biodistribution in rats: Brain,[1]; 120 min post injection,0.00 % dose/g
same,Biodistribution in rats: Heart,[1]; 120 min post injection,3.31 % dose/g
same,Biodistribution in rats: Intestine,[1]; 120 min post injection,6.57 % dose/g
same,Biodistribution in rats: Kidneys,[1]; 120 min post injection,3.48 % dose/g
same,Biodistribution in rats: Liver,[1]; 120 min post injection,0.10 % dose/g
same,Biodistribution in rats: Lungs,[1]; 120 min post injection,0.25 % dose/g
same,Biodistribution in rats: Muscle,[1]; 120 min post injection,0.23 % dose/g
same,Biodistribution in rats: Spleen,[1]; 120 min post injection,0.21 % dose/g
same,Biodistribution in rats: Submax. glands,[1]; 120 min post injection,2.09 % dose/g
same,LOG k′,[2],3.69
